Measured values published in ChEMBL document CHEMBL1909046, “DrugMatrix in vitro pharmacology data”.

Experiments:
[1] = target: Beta-3 adrenergic receptor (Homo sapiens, UniProt P13945); assay: DRUGMATRIX: Adrenergic beta3 radioligand binding (ligand: [125I] Cyanopindolol); type: cell membranes, HEK293, Membrane; settings: hek293; Not Active = under 50% inhibition at 10 µM
[2] = DRUGMATRIX: Calcium Channel Type L, Benzothiazepine radioligand binding (ligand: [3H] Diltiazem); type: cell membranes, Rattus norvegicus, Wistar, Brain, Membrane; settings: Not Active = under 50% inhibition at 10 µM
[3] = target: C-C chemokine receptor type 2 (Homo sapiens, UniProt P41597); type: cell membranes, CHO-K1, Membrane; settings: cho-k1; note: in other assays of this panel Not Active means under 50% inhibition at 10 µM
Sequence of C-C chemokine receptor type 2 (P41597 whole entry): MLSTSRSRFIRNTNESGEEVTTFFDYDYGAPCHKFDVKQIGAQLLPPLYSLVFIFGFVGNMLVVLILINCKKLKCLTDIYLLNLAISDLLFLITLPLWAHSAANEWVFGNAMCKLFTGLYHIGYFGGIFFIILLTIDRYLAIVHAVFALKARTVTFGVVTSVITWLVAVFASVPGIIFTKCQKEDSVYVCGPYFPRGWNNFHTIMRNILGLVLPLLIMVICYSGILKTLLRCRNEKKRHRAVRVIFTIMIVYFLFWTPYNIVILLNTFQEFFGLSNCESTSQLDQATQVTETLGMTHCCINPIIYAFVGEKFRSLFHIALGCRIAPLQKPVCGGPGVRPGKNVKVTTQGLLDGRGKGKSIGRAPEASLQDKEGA

[4] = target: T1, C-X-C chemokine receptor type 1 (Homo sapiens, UniProt P25024); note: in other assays of this panel Not Active means under 50% inhibition at 10 µM
T1 sequence (P25024 whole entry): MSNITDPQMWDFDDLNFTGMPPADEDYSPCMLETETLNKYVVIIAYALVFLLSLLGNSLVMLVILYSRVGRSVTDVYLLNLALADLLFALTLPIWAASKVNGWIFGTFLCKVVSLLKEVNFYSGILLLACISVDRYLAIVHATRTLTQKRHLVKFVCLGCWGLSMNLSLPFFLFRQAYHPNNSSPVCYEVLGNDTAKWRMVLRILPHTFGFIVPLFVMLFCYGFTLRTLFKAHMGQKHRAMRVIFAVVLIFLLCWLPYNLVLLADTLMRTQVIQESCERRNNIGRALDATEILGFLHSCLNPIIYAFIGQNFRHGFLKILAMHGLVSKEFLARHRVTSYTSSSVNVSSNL

[5] = target: Prostaglandin G/H synthase 1 (Homo sapiens, UniProt P23219); assay: biochemical; type: tissue-based, Platelet; settings: platelet;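 note: inhibition of COX-1 enzyme activity, with arachidonic acid supplied as substrate; in other assays of this panel Not Active means under 50% inhibition at 10 µM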
Sequence of Prostaglandin G/H synthase 1 (P23219 whole entry): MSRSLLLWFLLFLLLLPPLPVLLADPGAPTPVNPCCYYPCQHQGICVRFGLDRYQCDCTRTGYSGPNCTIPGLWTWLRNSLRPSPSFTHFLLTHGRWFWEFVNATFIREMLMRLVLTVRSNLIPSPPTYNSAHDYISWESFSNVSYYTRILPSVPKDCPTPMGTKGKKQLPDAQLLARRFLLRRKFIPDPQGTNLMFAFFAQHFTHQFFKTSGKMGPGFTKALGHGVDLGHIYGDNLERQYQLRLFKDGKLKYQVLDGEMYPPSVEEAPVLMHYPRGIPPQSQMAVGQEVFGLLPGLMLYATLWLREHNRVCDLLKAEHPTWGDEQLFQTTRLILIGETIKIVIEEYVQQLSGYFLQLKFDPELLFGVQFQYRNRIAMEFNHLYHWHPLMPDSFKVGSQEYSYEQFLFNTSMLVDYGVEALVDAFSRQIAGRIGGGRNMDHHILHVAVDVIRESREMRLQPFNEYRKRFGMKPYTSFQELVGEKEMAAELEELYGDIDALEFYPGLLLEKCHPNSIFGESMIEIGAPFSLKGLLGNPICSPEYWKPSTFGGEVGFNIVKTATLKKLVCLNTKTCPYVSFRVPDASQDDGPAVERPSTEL

[6] = DRUGMATRIX: Glutamate, NMDA, Phencyclidine radioligand binding (ligand: [3H] TCP); type: cell membranes, Rattus norvegicus, Wistar, Cerebral cortex, Membrane; settings: Not Active = under 50% inhibition at 10 µM
[7] = target: T2, Muscarinic acetylcholine receptor M5 (Homo sapiens, UniProt P08912); type: cell membranes, CHO-K1, Membrane; settings: cho-k1; note: in other assays of this panel Not Active means under 50% inhibition at 10 µM
T2 sequence (P08912 whole entry): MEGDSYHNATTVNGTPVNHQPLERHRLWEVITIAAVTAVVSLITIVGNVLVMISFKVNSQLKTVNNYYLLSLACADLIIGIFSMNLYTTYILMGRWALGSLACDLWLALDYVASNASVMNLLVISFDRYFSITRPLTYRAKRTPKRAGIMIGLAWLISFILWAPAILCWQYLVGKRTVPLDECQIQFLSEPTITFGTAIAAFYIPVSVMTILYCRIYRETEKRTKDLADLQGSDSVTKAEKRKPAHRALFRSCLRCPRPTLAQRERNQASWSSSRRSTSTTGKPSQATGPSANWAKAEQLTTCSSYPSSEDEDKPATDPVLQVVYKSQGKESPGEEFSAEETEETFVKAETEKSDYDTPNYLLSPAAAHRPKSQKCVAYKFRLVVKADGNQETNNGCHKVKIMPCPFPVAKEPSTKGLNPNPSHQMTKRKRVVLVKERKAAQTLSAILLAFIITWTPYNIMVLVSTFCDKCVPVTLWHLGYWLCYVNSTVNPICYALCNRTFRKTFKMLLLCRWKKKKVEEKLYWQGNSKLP

[8] = DRUGMATRIX: Platelet-Derived Growth Factor (PDGF) radioligand binding (ligand: [125I] PDGF); type: cell-based; settings: nih3t3; Not Active = under 50% inhibition at 10 µM
[9] = target: T3, Angiotensin-converting enzyme (Oryctolagus cuniculus, UniProt P12822); assay: biochemical; type: tissue-based, Lung
T3 sequence (P12822 whole entry): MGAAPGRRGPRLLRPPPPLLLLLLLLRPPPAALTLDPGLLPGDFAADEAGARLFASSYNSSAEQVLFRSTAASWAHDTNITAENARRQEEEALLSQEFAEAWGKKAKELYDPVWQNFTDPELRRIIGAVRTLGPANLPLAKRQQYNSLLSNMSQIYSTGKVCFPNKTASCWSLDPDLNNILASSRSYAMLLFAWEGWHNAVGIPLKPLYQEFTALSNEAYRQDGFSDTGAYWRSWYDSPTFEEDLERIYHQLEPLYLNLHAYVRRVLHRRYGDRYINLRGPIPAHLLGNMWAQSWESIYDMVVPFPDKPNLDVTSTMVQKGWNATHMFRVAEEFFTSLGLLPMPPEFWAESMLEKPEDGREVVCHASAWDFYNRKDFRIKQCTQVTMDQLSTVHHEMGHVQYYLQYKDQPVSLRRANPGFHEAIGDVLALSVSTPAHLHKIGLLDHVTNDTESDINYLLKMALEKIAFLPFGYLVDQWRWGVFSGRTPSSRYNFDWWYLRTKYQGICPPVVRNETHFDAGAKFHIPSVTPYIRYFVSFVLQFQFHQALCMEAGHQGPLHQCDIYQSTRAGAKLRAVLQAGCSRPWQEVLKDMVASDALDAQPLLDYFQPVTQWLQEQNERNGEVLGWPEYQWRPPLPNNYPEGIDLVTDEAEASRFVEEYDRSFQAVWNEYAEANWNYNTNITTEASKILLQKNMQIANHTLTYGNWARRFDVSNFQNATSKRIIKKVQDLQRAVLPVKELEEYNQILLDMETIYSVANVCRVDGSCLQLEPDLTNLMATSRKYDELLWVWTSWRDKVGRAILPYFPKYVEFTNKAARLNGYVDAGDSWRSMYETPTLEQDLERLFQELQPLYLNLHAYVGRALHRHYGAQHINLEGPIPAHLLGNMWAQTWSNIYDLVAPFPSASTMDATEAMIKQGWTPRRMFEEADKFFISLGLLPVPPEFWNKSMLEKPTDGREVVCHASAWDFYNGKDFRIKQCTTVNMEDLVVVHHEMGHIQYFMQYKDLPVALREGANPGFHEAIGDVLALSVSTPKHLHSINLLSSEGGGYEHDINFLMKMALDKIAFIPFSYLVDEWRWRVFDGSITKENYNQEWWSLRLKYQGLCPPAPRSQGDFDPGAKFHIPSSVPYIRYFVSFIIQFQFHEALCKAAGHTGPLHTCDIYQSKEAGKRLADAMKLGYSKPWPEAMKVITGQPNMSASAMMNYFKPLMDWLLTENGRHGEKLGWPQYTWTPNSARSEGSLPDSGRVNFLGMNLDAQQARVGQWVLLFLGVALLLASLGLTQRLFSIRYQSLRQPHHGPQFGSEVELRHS

Cathepsin G = target: T4, Cathepsin G (Homo sapiens, UniProt P08311); type: tissue-based; settings: neutrophil
T4 sequence (P08311 whole entry): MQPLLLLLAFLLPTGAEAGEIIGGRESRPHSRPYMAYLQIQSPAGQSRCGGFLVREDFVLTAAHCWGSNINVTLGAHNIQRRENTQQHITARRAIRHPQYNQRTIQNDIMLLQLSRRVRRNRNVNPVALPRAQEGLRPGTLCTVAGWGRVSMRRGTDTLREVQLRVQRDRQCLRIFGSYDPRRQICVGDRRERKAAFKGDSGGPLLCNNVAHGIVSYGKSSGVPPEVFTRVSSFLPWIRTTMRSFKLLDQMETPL

Sequence of Beta-3 adrenergic receptor (P13945 whole entry): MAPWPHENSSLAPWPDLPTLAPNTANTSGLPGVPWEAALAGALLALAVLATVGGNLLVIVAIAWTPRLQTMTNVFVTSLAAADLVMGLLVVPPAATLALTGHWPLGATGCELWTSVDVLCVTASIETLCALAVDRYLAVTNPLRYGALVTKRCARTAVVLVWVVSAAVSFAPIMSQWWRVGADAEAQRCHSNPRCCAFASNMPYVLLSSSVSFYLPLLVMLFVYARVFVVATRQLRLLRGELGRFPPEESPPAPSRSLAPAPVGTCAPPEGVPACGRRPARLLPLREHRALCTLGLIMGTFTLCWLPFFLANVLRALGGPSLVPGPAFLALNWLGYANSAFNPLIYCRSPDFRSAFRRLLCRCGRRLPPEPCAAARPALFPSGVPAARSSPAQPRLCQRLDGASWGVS

CC[C@H]1OC(=O)[C@H](C)[C@@H](O[C@H]2C[C@@](C)(OC)[C@@H](O)[C@H](C)O2)[C@H](C)[C@@H](O[C@@H]2O[C@H](C)C[C@H](N(C)C)[C@H]2O)[C@](C)(O)C[C@@H](C)/C(=N\OCOCCOC)[C@H](C)[C@@H](O)[C@]1(C)O [ROXITHROMYCIN]
Not Active: IC50 [1] | IC50 [2] | Ki [2] | IC50 [3] | IC50 [4] | IC50 [5] | IC50 [6] | Ki [6] | IC50 [7] | IC50 [8] | Ki [8] | IC50 [9] | IC50 (Cathepsin G)

NC(=O)c1ccccc1O [SALICYLAMIDE]
Not Active: IC50 [1] | IC50 [2] | Ki [2] | IC50 [3] | IC50 [4] | IC50 [5] | IC50 [6] | Ki [6] | IC50 [7] | IC50 [8] | Ki [8] | IC50 [9] | IC50 (Cathepsin G)

Cc1ncc([N+](=O)[O-])n1CC(C)O (stereo unspecified) [SECNIDAZOLE]
Not Active: IC50 [1] | IC50 [2] | Ki [2] | IC50 [3] | IC50 [4] | IC50 [5] | IC50 [6] | Ki [6] | IC50 [7] | IC50 [8] | Ki [8] | IC50 [9] | IC50 (Cathepsin G)

CN[C@@H]1[C@@H](O)[C@@H](O[C@@H]2[C@@H](O)[C@H](O[C@H]3OC(CN)=CC[C@H]3N)[C@@H](N)C[C@H]2N)OC[C@]1(C)O [SISOMICIN]
Not Active: IC50 [1] | IC50 [2] | Ki [2] | IC50 [3] | IC50 [4] | IC50 [5] | IC50 [6] | Ki [6] | IC50 [7] | IC50 [8] | Ki [8] | IC50 [9] | IC50 (Cathepsin G)

CC(=O)S[C@@H]1CC2=CC(=O)CC[C@]2(C)[C@H]2CC[C@@]3(C)[C@@H](CC[C@@]34CCC(=O)O4)[C@H]12 [SPIRONOLACTONE]
Not Active: IC50 [1] | IC50 [2] | Ki [2] | IC50 [3] | IC50 [4] | IC50 [5] | IC50 [6] | Ki [6] | IC50 [7] | IC50 [8] | Ki [8] | IC50 [9] | IC50 (Cathepsin G)

C[C@]12Cc3c[nH]nc3C[C@@H]1CC[C@@H]1[C@@H]2CC[C@@]2(C)[C@H]1CC[C@]2(C)O [STANOZOLOL]
Not Active: IC50 [1] | IC50 [2] | Ki [2] | IC50 [3] | IC50 [4] | IC50 [5] | IC50 [6] | Ki [6] | IC50 [7] | IC50 [8] | Ki [8] | IC50 [9] | IC50 (Cathepsin G)

CN(N=O)C(=O)N[C@@H](C=O)[C@@H](O)[C@H](O)[C@H](O)CO [STREPTOZOCIN]
Not Active: IC50 [1] | IC50 [2] | Ki [2] | IC50 [3] | IC50 [4] | IC50 [5] | IC50 [6] | Ki [6] | IC50 [7] | IC50 [8] | Ki [8] | IC50 [9] | IC50 (Cathepsin G)
